Laboratory results: ChEMBL document CHEMBL3596148, “Meridianin derivatives as potent Dyrk1A inhibitors and neuroprotective agents” (Bioorg Med Chem Lett, 2015)
pIC50: −log10 of the molar value.

How the values were obtained:
[1] = target: T1, Inhibitor of nuclear factor kappa-B kinase subunit beta (Homo sapiens) (UniProt O14920); assay: Inhibition of IKKbeta (unknown origin) at 0.5 uM relative to control
T1 sequence (whole entry): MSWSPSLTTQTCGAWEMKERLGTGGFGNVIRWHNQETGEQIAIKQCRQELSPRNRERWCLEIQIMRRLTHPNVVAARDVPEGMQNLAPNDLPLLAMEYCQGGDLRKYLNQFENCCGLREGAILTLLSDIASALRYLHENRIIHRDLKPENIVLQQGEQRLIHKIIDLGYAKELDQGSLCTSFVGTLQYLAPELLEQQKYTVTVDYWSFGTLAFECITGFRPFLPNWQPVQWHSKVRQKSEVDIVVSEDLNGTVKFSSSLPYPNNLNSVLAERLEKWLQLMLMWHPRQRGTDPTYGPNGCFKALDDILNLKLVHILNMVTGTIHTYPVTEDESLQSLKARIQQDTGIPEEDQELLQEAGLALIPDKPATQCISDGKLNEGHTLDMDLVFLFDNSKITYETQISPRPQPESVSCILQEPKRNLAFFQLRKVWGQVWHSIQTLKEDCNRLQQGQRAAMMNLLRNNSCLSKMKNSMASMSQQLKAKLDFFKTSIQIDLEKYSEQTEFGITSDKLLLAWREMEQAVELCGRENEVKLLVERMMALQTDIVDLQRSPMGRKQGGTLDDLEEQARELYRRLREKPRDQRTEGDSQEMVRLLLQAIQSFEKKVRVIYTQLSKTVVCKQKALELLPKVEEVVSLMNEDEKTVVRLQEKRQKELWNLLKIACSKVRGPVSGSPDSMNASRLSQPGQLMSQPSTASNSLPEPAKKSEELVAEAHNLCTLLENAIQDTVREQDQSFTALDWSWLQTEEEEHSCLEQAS

[2] = target: Insulin receptor (Homo sapiens) (UniProt P06213); assay: Inhibition of IR (unknown origin) at 0.5 uM relative to control
[3] = target: Vascular endothelial growth factor receptor 1 (Homo sapiens) (UniProt P17948); assay: Inhibition of VEGFR1 (unknown origin) at 0.5 uM relative to control
[4] = target: Cyclin-dependent kinase 9 (Homo sapiens) (UniProt P50750); assay: Inhibition of CDK9 (unknown origin) at 0.5 uM relative to control
[5] = target: Protein kinase C alpha type (Homo sapiens) (UniProt P17252); assay: Inhibition of PKCalpha (unknown origin) at 0.5 uM relative to control
[6] = Cytotoxicity against human SH-SY5Y cells assessed as cell viability at 30 uM after 24 hrs by MTT assay relative to control; assay type: cell-based; details: read-out: Activity
[7] = target: Insulin-like growth factor 1 receptor (Homo sapiens) (UniProt P08069); assay: Inhibition of IGF-1R (unknown origin) at 0.5 uM relative to control
[8] = target: Casein kinase I isoform alpha (Homo sapiens) (UniProt P48729); assay: Inhibition of CK1 (unknown origin) at 0.5 uM relative to control
SH-SY5Y [9] = assay: cells; details: Homo sapiens, 24 h
[10] = target: Tyrosine-protein kinase ABL1 (Homo sapiens) (UniProt P00519); assay: Inhibition of Abl (unknown origin) at 0.5 uM relative to control
[11] = target: AMP-activated protein kinase, AMPK (Homo sapiens) (UniProt P54646+O43741+P54619+Q9UGJ0+Q9Y478+Q13131+Q9UGI9); assay: Inhibition of AMPK (unknown origin) at 0.5 uM relative to control; assay type: protein-complex assay
SH-SY5Y [12] = assay: Neuroprotective activity against glutamate-induced neurotoxicity in human SH-SY5Y cells assessed as cell viability at 10 uM incubated for 30 mins prior to glutamate challenge measured after 24 hrs by MTT assay (reference value: 73.8 +/- 4.5%); assay type: functional; details: read-out: Activity
[13] = target: T2, Dual specificity tyrosine-phosphorylation-regulated kinase 2 (Homo sapiens, UniProt Q92630); assay: Inhibition of Dyrk2 (unknown origin) using Woodtide as substrate after 30 mins by P81 membrane assay in presence of [33P]-g-ATP
T2 sequence (Q92630 whole entry): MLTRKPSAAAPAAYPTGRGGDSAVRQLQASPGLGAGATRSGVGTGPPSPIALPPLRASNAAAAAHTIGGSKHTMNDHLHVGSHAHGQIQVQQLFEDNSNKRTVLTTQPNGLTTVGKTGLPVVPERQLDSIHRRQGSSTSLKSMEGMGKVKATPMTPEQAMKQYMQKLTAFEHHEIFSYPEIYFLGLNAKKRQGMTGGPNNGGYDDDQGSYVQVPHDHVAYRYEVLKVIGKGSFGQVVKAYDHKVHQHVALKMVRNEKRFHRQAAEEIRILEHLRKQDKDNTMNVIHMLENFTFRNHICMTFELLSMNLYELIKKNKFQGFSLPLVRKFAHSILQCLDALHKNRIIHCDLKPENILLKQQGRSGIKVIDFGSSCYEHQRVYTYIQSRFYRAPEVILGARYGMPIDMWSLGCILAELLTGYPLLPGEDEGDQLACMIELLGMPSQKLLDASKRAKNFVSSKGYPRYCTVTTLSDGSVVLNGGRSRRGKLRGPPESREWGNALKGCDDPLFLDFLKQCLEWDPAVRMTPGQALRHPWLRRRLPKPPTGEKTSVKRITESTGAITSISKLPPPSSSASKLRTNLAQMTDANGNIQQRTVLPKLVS

[14] = target: Cyclin-dependent kinase 2 (Homo sapiens) (UniProt P24941); assay: Inhibition of CDK2 (unknown origin) at 0.5 uM relative to control
SH-SY5Y [15] = assay: Neuroprotective activity against glutamate-induced neurotoxicity in human SH-SY5Y cells assessed as cell viability at 50 uM incubated for 30 mins prior to glutamate challenge measured after 24 hrs by MTT assay (reference value: 73.8 +/- 4.5%); assay type: functional; details: read-out: Activity

Chain of Vascular endothelial growth factor receptor 1 (Homo sapiens) (P17948 whole entry): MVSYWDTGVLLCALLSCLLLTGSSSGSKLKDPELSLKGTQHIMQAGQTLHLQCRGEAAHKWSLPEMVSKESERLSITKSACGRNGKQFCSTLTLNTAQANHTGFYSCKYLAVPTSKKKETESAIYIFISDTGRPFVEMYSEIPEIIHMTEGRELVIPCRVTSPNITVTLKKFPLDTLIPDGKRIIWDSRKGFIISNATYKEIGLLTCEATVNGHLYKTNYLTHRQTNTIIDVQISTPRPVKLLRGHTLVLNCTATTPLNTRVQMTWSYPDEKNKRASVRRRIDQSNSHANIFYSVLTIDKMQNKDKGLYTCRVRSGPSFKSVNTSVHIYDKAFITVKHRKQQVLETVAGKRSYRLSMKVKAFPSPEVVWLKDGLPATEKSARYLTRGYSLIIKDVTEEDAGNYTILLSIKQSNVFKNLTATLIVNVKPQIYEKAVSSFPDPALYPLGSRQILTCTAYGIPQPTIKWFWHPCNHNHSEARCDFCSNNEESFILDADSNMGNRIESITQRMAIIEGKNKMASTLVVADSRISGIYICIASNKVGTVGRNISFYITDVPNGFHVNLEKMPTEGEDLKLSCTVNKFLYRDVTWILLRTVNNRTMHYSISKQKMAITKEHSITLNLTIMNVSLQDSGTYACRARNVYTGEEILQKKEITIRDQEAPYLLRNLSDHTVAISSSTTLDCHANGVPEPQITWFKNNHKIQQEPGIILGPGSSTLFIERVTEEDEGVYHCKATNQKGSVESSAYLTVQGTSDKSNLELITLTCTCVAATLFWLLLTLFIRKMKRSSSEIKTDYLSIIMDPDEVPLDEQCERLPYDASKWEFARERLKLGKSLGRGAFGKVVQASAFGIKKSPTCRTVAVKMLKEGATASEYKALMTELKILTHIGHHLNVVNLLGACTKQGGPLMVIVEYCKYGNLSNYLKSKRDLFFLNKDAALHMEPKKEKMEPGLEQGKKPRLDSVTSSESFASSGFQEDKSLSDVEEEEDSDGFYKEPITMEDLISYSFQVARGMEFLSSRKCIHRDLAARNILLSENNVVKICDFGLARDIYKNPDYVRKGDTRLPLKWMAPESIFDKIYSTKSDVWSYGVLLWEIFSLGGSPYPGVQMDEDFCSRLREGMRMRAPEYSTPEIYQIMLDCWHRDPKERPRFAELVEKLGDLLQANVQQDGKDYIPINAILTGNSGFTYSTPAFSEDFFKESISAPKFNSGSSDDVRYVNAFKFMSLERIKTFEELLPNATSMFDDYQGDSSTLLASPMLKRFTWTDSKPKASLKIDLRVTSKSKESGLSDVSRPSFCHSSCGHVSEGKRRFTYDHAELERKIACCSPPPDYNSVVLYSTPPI
Chain of Insulin receptor (Homo sapiens) (P06213 28-758 limits assumed): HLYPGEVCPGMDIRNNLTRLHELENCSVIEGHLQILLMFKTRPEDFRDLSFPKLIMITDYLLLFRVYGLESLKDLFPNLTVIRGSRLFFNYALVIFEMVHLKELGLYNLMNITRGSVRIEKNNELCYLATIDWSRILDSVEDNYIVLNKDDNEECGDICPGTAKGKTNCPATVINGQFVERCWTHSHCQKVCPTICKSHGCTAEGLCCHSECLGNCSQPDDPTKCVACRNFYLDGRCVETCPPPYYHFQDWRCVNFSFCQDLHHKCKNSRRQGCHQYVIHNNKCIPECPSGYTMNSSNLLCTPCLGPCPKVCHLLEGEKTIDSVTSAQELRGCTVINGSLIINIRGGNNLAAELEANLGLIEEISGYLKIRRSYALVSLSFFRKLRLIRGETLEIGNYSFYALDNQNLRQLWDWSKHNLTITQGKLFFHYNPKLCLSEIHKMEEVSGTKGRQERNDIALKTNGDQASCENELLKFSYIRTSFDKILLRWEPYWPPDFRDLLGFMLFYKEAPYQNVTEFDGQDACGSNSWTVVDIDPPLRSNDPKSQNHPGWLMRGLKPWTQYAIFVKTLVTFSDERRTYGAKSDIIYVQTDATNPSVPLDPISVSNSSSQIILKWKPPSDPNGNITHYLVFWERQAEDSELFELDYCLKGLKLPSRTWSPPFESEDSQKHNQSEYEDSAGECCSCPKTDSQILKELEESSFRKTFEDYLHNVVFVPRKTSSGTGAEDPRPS
Chain of Insulin receptor (Homo sapiens) (P06213 763-1382 limits assumed): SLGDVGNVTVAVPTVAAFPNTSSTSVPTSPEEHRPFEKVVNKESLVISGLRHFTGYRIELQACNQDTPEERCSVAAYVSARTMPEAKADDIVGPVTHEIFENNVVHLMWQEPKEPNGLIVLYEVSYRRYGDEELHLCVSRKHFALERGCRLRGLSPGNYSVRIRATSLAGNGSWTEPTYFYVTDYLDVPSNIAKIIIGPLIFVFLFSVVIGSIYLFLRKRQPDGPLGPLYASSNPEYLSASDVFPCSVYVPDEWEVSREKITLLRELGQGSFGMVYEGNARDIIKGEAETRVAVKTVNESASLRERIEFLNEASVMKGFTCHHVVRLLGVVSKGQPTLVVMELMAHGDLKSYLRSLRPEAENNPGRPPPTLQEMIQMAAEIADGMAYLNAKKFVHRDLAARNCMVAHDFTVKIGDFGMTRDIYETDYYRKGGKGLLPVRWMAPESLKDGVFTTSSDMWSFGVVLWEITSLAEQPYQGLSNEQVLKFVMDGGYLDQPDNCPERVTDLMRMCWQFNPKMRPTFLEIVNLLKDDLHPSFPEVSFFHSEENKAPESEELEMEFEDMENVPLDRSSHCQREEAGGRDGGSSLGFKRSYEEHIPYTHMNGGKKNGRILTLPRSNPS
Chain of Insulin-like growth factor 1 receptor (Homo sapiens) (P08069 31-736 limits assumed): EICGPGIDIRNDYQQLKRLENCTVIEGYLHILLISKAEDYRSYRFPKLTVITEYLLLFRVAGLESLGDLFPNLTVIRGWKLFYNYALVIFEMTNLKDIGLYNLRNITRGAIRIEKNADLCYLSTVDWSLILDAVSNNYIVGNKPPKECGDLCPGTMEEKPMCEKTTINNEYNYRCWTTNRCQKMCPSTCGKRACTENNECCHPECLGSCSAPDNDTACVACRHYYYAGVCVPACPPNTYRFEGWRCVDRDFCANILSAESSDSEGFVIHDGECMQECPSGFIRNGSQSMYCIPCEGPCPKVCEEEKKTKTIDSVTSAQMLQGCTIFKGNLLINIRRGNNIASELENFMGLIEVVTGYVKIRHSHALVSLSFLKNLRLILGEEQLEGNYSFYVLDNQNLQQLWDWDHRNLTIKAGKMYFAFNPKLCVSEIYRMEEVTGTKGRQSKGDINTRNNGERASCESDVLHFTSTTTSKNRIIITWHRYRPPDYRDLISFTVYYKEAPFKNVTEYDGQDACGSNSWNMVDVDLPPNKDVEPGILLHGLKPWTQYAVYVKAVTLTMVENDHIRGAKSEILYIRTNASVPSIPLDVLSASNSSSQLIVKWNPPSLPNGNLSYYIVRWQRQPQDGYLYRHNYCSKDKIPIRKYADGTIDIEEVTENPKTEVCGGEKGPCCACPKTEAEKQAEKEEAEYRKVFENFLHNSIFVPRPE
Chain of Insulin-like growth factor 1 receptor (Homo sapiens) (P08069 741-1367 limits assumed): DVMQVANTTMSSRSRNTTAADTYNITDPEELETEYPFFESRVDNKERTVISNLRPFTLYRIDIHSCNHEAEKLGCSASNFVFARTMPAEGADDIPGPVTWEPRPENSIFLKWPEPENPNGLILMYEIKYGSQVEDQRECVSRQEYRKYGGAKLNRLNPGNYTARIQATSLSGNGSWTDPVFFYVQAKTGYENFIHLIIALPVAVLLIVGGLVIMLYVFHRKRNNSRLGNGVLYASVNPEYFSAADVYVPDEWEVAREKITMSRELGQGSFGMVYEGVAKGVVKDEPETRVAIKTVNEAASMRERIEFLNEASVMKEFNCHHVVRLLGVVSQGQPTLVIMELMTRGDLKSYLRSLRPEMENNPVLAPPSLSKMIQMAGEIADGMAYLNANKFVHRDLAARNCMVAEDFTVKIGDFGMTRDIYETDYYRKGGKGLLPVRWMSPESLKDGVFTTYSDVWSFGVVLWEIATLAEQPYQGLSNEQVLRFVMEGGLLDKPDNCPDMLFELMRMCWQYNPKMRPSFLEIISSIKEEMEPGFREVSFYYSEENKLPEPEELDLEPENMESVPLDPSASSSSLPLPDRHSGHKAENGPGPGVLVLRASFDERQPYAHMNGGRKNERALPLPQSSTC
Chain of Casein kinase I isoform alpha (Homo sapiens) (P48729 2-337 limits assumed): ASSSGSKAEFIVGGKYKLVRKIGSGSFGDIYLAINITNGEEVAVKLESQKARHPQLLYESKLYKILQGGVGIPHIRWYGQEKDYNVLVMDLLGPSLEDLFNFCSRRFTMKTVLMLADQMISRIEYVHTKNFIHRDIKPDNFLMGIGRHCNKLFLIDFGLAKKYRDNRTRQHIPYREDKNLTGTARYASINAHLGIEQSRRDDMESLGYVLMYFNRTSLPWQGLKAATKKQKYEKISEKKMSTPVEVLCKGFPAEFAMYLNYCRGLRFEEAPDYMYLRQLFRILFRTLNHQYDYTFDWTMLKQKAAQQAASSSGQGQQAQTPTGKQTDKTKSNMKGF

## Nc1nccc(-c2cn(C(=O)N3CCOCC3)c3ccc(Br)cc23)n1
[1]
  inhibition: 7.8%
[2]
  inhibition: 11.1%
[3]
  inhibition: 0%
[4]
  inhibition: 12.6%
[5]
  inhibition: 26.5%
[6]
  viability at 24 h, 30 µM: 87%
[7]
  inhibition: 2.1%
[8]
  inhibition: 13.8%
SH-SY5Y [9]
  pIC50: < 4.00
[10]
  inhibition: 3%
[11]
  inhibition: 4.4%
SH-SY5Y [12]
  viability at 10 µM: 82.5%
[13]
  pIC50: 5.85
[14]
  inhibition: 0%
SH-SY5Y [15]
  viability at 50 µM: 86.4%
